Test results: patent publication US20230381330A1, “ENZYME-ACTIVATED SERUM EXTENDED HALF-LIFE THERAPEUTIC CONJUGATES” (Avacta Life Sciences Limited, priority 2020, published 2023)

How the values were obtained:
[1] = test system: J774A.1 mouse macrophage cell line cells; assay: LDH release (pyroptosis) in J774A.1 cells with or without rhFAPα; format: cell-based; conditions: serial 10-fold dilutions, rhFAPα 25 nM, 24 hours, FIG. 17
Procedure: In further in vitro studies, several conjugates were tested for their ability to induce pyroptosis in J774 cells in the absence and presence of FAPα. Briefly, J774A.1 mouse macrophage cell line cells were cultured in triplicate wells with serial 10-fold dilutions of either VbP (data not shown) or one of the FAP-activated I-DASH inhibitors (Hu IgG1 Fc-6325, Hu IgG1-6325, MSA-6325, SQT-Gly V.2-6325, SQT-Gly CF-6325 or SQT-Gly CG-6325) in the presence or absence of rhFAPα at a final concentration of 25 nM for 24 hours. Each experiment included an untreated control. Following the incubation, the levels of lactate dehydrogenase (LDH, a marker of pyroptosis) released into culture supernatants were measured using the CytoTox 96 Non-radioactive Cytotoxicity Assay according to the manufacturer's instructions. The results are shown in FIG. 17 as fold-increase in LDH release.

G-CSF = conditions: mouse, in vivo; cited from earlier work
mouse tumor model = assay: EC50 / maximum tolerated dose studies in mice; format: in vivo; conditions: FIG. 4A/4B
Procedure: (§1) Half-maximal effective concentration (EC50) studies were undertaken to examine the difference between mice and rats administered talabostat alone (FIG. 4A) and mice and rats administered the therapeutic conjugates comprising talabostat (FIG. 4B). When talabostat is administered alone, the talabostat maximum tolerated dose (MTD) is about 3 mg/m^2 in a mouse tumor model and 0.18 mg/m^2 in rats. That is, the talabostat MTD is 1/17 the tumor model EC50 (FIG. 4A). […] Talabostat, as part of the therapeutic conjugate, can be administered to rats and mice at therapeutically effective doses.

rats = assay: EC50 / maximum tolerated dose studies in rats; format: in vivo, rat; conditions: talabostat administered alone, FIG. 4A
Procedure: as §1

CC(C)[C@H](N)C(=O)N1CCC[C@H]1B(O)O [talabostat, Val-boroPro]
differentiation of fold-increase in LDH release with vs without FAPα [1]: not the case
serum G-CSF response (G-CSF): large serum G-CSF response
maximum tolerated dose (MTD) (mouse tumor model): about 3 mg/m^2
maximum tolerated dose (MTD) (rats; rats): 0.18 mg/m^2
MTD as fraction of the tumor model EC50 (rats): 1/17
